# Measured values published in patent publication US9932637B2, “Genetic polymorphisms associated with cardiovascular disorders and drug response, methods of detection and uses thereof” (CELERA CORPORATION, priority 2003, dated 2018).
# Tested on: patients with prior myocardial infarction (CARE study)
# Assay: CARE: association of SNPs with pravastatin treatment in cardiovascular events prevention (logistic regression, odds ratio pravastatin vs placebo by genotype; Table 8)
# Type: in vivo, human
# Source text: In order to identify genetic markers associated with acute coronary events (e.g. MI, stroke, unstable angina, congestive heart failure, etc.) or response to statin treatment for the prevention of coronary events, samples from the Cholesterol and Recurrent Events (CARE) study (a randomized multicentral double-blinded trial on secondary prevention of acute coronary events with pravastatin) (Sacks et al., 1991, Am. J. Cardiol. 68: 1436-1446) were genotyped. A well-documented myocardial infarction (MI) was one of the enrollment criteria for entry into the CARE study. Patients were enrolled in the CARE trial from 80 participating study centers. […] Patients were randomized to receive either 40 mg of pravastatin once daily or a matching placebo. The primary endpoint of the trial was death from coronary heart disease and the median duration of follow-up was 5.0 years (range, 4.0 to 6.2 years). […] Secondary endpoints of other related cardiovascular or metabolic disease events, and changes in clinical variables were also recorded in pravastatin-treated and placebo groups. All individuals included in the study had signed a written informed consent form and the study protocol was approved by the respective Institutional Review Boards (IRBs).
# For genotyping SNPs in CARE patient samples, DNA was extracted from blood samples using conventional DNA extraction methods such as the QIA-amp kit from Qiagen. Genotypes were obtained on an ABI PRISM® 7900HT Sequence Detection PCR system (Applied Biosystems, Foster City, Calif.) by kinetic allele-specific PCR, similar to the method described by Germer et al. (Germer S., Holland M. J., Higuchi R. 2000, Genome Res. 10: 258-266).
# Statistical analysis for association of SNPs with pravastatin treatment in cardiovascular events prevention (Table 8) was carried out using an overall logistic regression model that included an intercept, a parameter for the effect of a genotype containing two rare alleles versus a genotype containing no rare alleles, a parameter for the effect of a genotype containing one rare allele versus a genotype containing no rare alleles, a parameter for the effect of use of pravastatin versus the use of placebo, and parameters for the interaction effects between SNP genotypes and pravastatin use. The test of the overall model is a chi-square test with two degrees of freedom for analyses containing all three genotypes, and one degree of freedom for analyses containing two genotypes.
# Effect sizes were estimated through odds ratios (pravastatin group versus placebo) for carriers of each genotype (groups of 0, 1, and 2 minor allele carriers). The effect was considered to be significant if p-value for testing whether any of the interactions between SNP genotypes and pravastatin use were <0.05. […] Odds ratios less than one indicate that the specific SNP allele has a protective effect and odds ratios greater than one indicate that the specific SNP allele has an adverse effect.
# [1] = IL9 hCV3275199, All Patients, 0 Rare Alleles, Prava arm
# [2] = IL9 hCV3275199, All Patients, 1 Rare Allele, Prava arm
# [3] = IL9 hCV3275199, All Patients, 2 Rare Alleles, Prava arm
# [4] = IL12A hCV16053900, All Patients, 0 Rare Alleles, Prava arm
# [5] = IL12A hCV16053900, All Patients, 1 Rare Allele, Prava arm
# [6] = IL12A hCV16053900, All Patients, 2 Rare Alleles, Prava arm
# [7] = KLK14 hCV16044337, All Patients, 0 Rare Alleles, Prava arm
# [8] = KLK14 hCV16044337, All Patients, 1 Rare Allele, Prava arm
# [9] = KLK14 hCV16044337, All Patients, 2 Rare Alleles, Prava arm
# [10] = LAMA5 hCV25629492, All Patients, 0 Rare Alleles, Prava arm
# [11] = LAMA5 hCV25629492, All Patients, 1 Rare Allele, Prava arm
# [12] = LAMA5 hCV25629492, All Patients, 2 Rare Alleles, Prava arm
# [13] = LRP8 hCV190754, All Patients, Hosp. for Unstable Angina
# [14] = MARK3 hCV25926771, All Patients, 0 Rare Alleles, Prava arm
# [15] = MARK3 hCV25926771, All Patients, 1 Rare Allele, Prava arm
# [16] = MJD hCV16189421, All Patients, 0 Rare Alleles, Prava arm
compound,measurement,setting,value
CC[C@H](C)C(=O)O[C@H]1C[C@H](O)C=C2C=C[C@H](C)[C@H](CC[C@@H](O)C[C@@H](O)CC(=O)O)[C@H]21 [pravastatin],"Nonfatal MI (Probable/Definite), n/total (%)",[1],(10.4%)
same,"Nonfatal MI (def & prob), n/total (%)",[1],(9.8%)
same,"Fatal/Nonfatal MI (def & prob), n/total (%)",[2],(6.0%)
same,"MI (Fatal/Nonfatal), n/total (%)",[2],(6.0%)
same,"Nonfatal MI (Probable/Definite), n/total (%)",[2],(5.7%)
same,"Nonfatal MI (def & prob), n/total (%)",[2],(5.7%)
same,"Fatal/Nonfatal MI (def & prob), n/total (%)",[3],(6.1%)
same,"MI (Fatal/Nonfatal), n/total (%)",[3],(6.1%)
same,"Nonfatal MI (Probable/Definite), n/total (%)",[3],(6.1%)
same,"Nonfatal MI (def & prob), n/total (%)",[3],(6.1%)
same,"Coronary Artery Bypass Graft, n/total (%)",[4],(4.9%)
same,"Coronary Artery Bypass or Revascularization, n/total (%)",[4],(11.0%)
same,"Coronary Artery Bypass Graft, n/total (%)",[5],(8.9%)
same,"Coronary Artery Bypass or Revascularization, n/total (%)",[5],(16.2%)
same,"Coronary Artery Bypass Graft, n/total (%)",[6],(7.2%)
same,"Coronary Artery Bypass or Revascularization, n/total (%)",[6],(14.8%)
same,"Coronary Artery Bypass Graft, n/total (%)",[7],(8.7%)
same,"Definite Nonfatal MI, n/total (%)",[7],(7.1%)
same,"Fatal CHD/Definite Nonfatal MI, n/total (%)",[7],(9.5%)
same,"Fatal/Nonfatal MI (def & prob), n/total (%)",[7],(9.8%)
same,"MI (Fatal/Nonfatal), n/total (%)",[7],(10.1%)
same,"Nonfatal MI (Probable/Definite), n/total (%)",[7],(9.7%)
same,"Nonfatal MI (def & prob), n/total (%)",[7],(9.1%)
same,"Coronary Artery Bypass Graft, n/total (%)",[8],(6.2%)
same,"Definite Nonfatal MI, n/total (%)",[8],(7.2%)
same,"Fatal CHD/Definite Nonfatal MI, n/total (%)",[8],(9.9%)
same,"Fatal/Nonfatal MI (def & prob), n/total (%)",[8],(10.0%)
same,"MI (Fatal/Nonfatal), n/total (%)",[8],(10.2%)
same,"Nonfatal MI (Probable/Definite), n/total (%)",[8],(9.4%)
same,"Nonfatal MI (def & prob), n/total (%)",[8],(9.1%)
same,"Coronary Artery Bypass Graft, n/total (%)",[9],(5.6%)
same,"Definite Nonfatal MI, n/total (%)",[9],(4.4%)
same,"Fatal CHD/Definite Nonfatal MI, n/total (%)",[9],(5.6%)
same,"Fatal/Nonfatal MI (def & prob), n/total (%)",[9],(6.9%)
same,"MI (Fatal/Nonfatal), n/total (%)",[9],(6.9%)
same,"Nonfatal MI (Probable/Definite), n/total (%)",[9],(6.3%)
same,"Nonfatal MI (def & prob), n/total (%)",[9],(6.3%)
same,"Definite Nonfatal MI, n/total (%)",[10],(8.8%)
same,"Fatal/Nonfatal MI (def & prob), n/total (%)",[10],(12.1%)
same,"Nonfatal MI (def & prob), n/total (%)",[10],(11.3%)
same,"Definite Nonfatal MI, n/total (%)",[11],(5.4%)
same,"Fatal/Nonfatal MI (def & prob), n/total (%)",[11],(7.7%)
same,"Nonfatal MI (def & prob), n/total (%)",[11],(7.4%)
same,"Definite Nonfatal MI, n/total (%)",[12],(4.1%)
same,"Fatal/Nonfatal MI (def & prob), n/total (%)",[12],(7.7%)
same,"Nonfatal MI (def & prob), n/total (%)",[12],(5.4%)
same,"Hosp. for Unstable Angina, n/total (%)","LRP8 hCV190754, All Patients, 0 Rare Alleles, Prava, n/total 98/560",(17.5%)
same,"Hosp. for Unstable Angina, n/total (%)","LRP8 hCV190754, All Patients, 1 Rare Allele, Prava, n/total 100/712",(14.0%)
same,"Hosp. for Unstable Angina, n/total (%)","LRP8 hCV190754, All Patients, 2 Rare Alleles, Prava, n/total 32/244",(13.1%)
same,"Prava vs. Placebo Odds Ratio, 0 Rare Alleles",[13],1.21
same,"Prava vs. Placebo Odds Ratio, 1 Rare Alleles",[13],0.70
same,"Prava vs. Placebo Odds Ratio, 2 Rare Alleles",[13],0.54
same,"Definite Nonfatal MI, n/total (%)",[14],(6.7%)
same,"Fatal CHD/Definite Nonfatal MI, n/total (%)",[14],(9.9%)
same,"Definite Nonfatal MI, n/total (%)",[15],(7.0%)
same,"Fatal CHD/Definite Nonfatal MI, n/total (%)",[15],(9.1%)
same,"Fatal/Nonfatal MI (def & prob), n/total (%)",[16],(8.4%)
same,"Hosp. for Unstable Angina, n/total (%)",[16],(14.4%)
